# Measured values from publication PMC12864594, “Photoactivated Proximity Protein Labeling Reveals Enhanced Tumor Retention of a D‐Peptide‐Ruthenium Prodrug Conjugate” (Advanced Healthcare Materials, 2025).
# Values joined by “and” are separate entries in the source; they are usually repeats but may differ in a detail not shown here. Identical values can stand only once. Peptide text beside a SMILES is read from it.
# Tests used:
# A549 cells [1] = assay: Intracellular ROS generation, CellROX Deep Red probe, FACS; format: cell-based, human; conditions: for Normalized intracellular ROS generation, light: light 515 nm, 13.1 J cm^−2
# Protocol: To determine the pathway by which the compounds cause cell death, a ROS generation assay was performed for Δ and Λ isomers of [1]Cl2–[3]Cl2 in A549 cells using the unspecific molecular probe CellROX Deep Red. This assay was used to quantify the formation of singlet oxygen, superoxide, and […], both in the dark or upon green light irradiation (515 nm, 13.1 J cm^−2). The cells treated with medium, Tert‐butyl hydroperoxide (tBHP), cisplatin, and Rose Bengal were used as vehicle control, positive control, negative control, and green light‐activated PDT type II control, respectively. These experiments were conducted in normoxic and hypoxic cells at the same time. The mean fluorescence intensity in each cell, which was quantified by FACS and normalized to that of controls, is a relative measure of intracellular ROS production (see Table 3; raw data in Figures S30 and S31, Supporting Information). At the end of the assay, the absolute ratio R, defined as the ratio of the ROS probe emission intensity in the light group, divided by that in the dark group, was used as quantification of light‐induced ROS production.
# The generation of ROS (reactive oxygen species) in A549 cells was measured using the ROS deep red fluorescence indicator (Abcam, ab186029). A549 (1 × 10^5, 1 mL) were seeded into 12‐well plates (Sarstedt, 83.3921) and incubated for 24 h in the dark under normoxia. The cells were then treated with [1]Cl2 ‐[3]Cl2, cisplatin, Rose Bengal or [Ru(Ph2phen)2Cl2] (15 µM). There were two groups for each drug (dark and light). After 24 h of incubation under normoxia, the plate was washed with cold PBS once, and cells were trypsinized, harvested, and then resuspended in 150 µL PBS. The cell suspension from the centrifuge tubes was transferred to 96‐round bottom well plates (Thermo Scientific, 268200), and the plates were kept in the dark or irradiated with […] light (dose = 13.1 J cm^−2). After which, the Cellular ROS Deep Red dye was added with 1000× dilution, and the cells were further stained for 1 h. The levels of intracellular ROS were then determined using the CytoFLEX flow cytometer using the APC‐A (638 nm excitation, 660/10 nm emission) channel. All flow cytometry data were processed using FlowLogic 8.5 software.
# A549 cells [2] = assay: 2D cytotoxicity, sulforhodamine B (SRB) end point assay; format: cell-based, human; conditions: A549 2D normoxic cells, 72 h, without washing, no irradiation
# Protocol: Considering the potential of the six diastereomers for PACT, and their better targeting of αvβ3 in hypoxic A549 cells, compared with PC‐3, their cytotoxicity was determined in 2D monolayers of normoxic and hypoxic A549 cells using a sulforhodamine B (SRB) cell quantification end point assay^[ [66] ^] in the dark (light dose 0 J cm^−2) or upon green light activation (light dose 13.1 J cm^−2). Half‐maximal effective concentrations (EC50 in µM) were measured as an evaluation of the toxicity of the compounds. The photoindex values (PI), defined as EC50,dark/ EC50,light, were calculated to quantify the extent of light activation in cancer cells. […]
# A549 cells (5000) or PC‐3 cells (6000) were seeded in 96‐well plates (Sarstedt, 83.3924), each well contained 100 µL Opti‐MEM (Gibco complete medium 11058‐021, supplemented with 2.5% v/v fetal calf serum (FCS), 0.2% v/v penicillin/streptomycin (P/S), and 1% v/v glutamine) either in normoxic (21% O2) or hypoxic (1.0% O2) incubator. […] Finally, 100 µL of cold trichloroacetic acid (10% w/v) was added to each well to fix the cells, and all plates were then transferred to a 4 °C refrigerator for 48 h before performing an SRB cell quantification endpoint assay (see below).^[ [66] ^] […] Errors were calculated utilizing 95% confidence intervals (±CI in µM). […]
# [3] = mixture of the Δ‐ and Λ‐ isomers; cited from earlier work
# Source text: Table 1 Photochemical properties of isolated Δ and Λ diastereoisomers of [1]Cl2–[3]Cl2 including molar extinction coefficients (ε, in M ^−1 cm^−1) at absorption maximum wavelength (405 nm), photosubstitution quantum yields for step 1 (ΦPS1) and step 2 (ΦPS2) in H2O or 50% MeCN in H2O under green light irradiation, and singlet oxygen quantum yields of each complexes in CD3OD. | column: Complex || To evaluate the efficiency of these ruthenium‐peptide conjugates [1]Cl2–[3]Cl2 as potential PDT type II agents, the quantum yields (ΦΔ) of singlet oxygen generation were further measured by direct spectroscopic detection of ^1O2 emission at 1275 nm in air‐saturated CD3OD (Table 1; Figure S21, Supporting Information). The ΦΔ value for a mixture of the Δ‐ and Λ‐ isomers of [1]Cl2 was already reported in our previous work (0.013 ± 0.005)^[ [51] ^]; within experimental errors, the values found for the isolated isomers were identical (0.008 ± 0.005 and 0.009 ± 0.005), and, like for the isomers of [ ...
# [4] = A549, hypoxia (1%), 15 µM, 24 h
# [5] = A549, hypoxia (1%), 15 µM, 24 h, dark, normalized to dark control
# [6] = A549, hypoxia (1%), 15 µM, 24 h, normalized to dark control
# [7] = A549, normoxia (21%), 15 µM, 24 h
# [8] = A549, normoxia (21%), 15 µM, 24 h, dark, mean fluorescence normalized to dark control
# [9] = A549, normoxia (21%), 15 µM, 24 h, normalized to dark control
compound,measurement,setting,value
CSCC[C@@H](NC(=O)[C@@H](CC(=O)O)NC(=O)CNC(=O)[C@@H](CCCNC(=N)N)NC(=O)[C@@H](CCSC)NC(C)=O)C(N)=O,molar extinction coefficient ε × 10^4 at 405 nm (× 10^4 M^−1 cm^−1),,1.16 and 1.27
CSCC[C@H](NC(=O)[C@@H](CC(=O)O)NC(=O)CNC(=O)[C@@H](CCCNC(=N)N)NC(=O)[C@H](CCSC)NC(C)=O)C(N)=O (HELM PEPTIDE1{[ac].M.[dR].G.[dD].M.[am]}$$$$V2.0),molar extinction coefficient ε × 10^4 at 405 nm (× 10^4 M^−1 cm^−1),,1.12 and 1.05
"N.N.[Cl][Pt][Cl] [Cisplatin, cisplatin]",R (ROS probe emission light group / dark group),A549 cells [1]; [4],2.00
same,"Normalized intracellular ROS generation, dark",A549 cells [1]; [5],1.00
same,"Normalized intracellular ROS generation, light",A549 cells [1]; [6],1.99
same,R (ROS probe emission light group / dark group),A549 cells [1]; [7],1.74
same,"Normalized intracellular ROS generation, dark",A549 cells [1]; [8],1.28
same,"Normalized intracellular ROS generation, light",A549 cells [1]; [9],2.23
O=C([O-])c1c(Cl)c(Cl)c(Cl)c(Cl)c1-c1c2cc(I)c(=O)c(I)c-2oc2c(I)c([O-])c(I)cc12.[Na+].[Na+] [Rose Bengal],R (ROS probe emission light group / dark group),A549 cells [1]; [4],3.05
same,"Normalized intracellular ROS generation, dark",A549 cells [1]; [5],0.84
same,"Normalized intracellular ROS generation, light",A549 cells [1]; [6],2.56
same,R (ROS probe emission light group / dark group),A549 cells [1]; [7],5.2 and 5.21
same,"Normalized intracellular ROS generation, dark",A549 cells [1]; [8],0.90
same,"Normalized intracellular ROS generation, light",A549 cells [1]; [9],4.71
F[P-](F)(F)(F)(F)F.F[P-](F)(F)(F)(F)F.[Ru+2].c1ccc(-c2ccnc3c2ccc2c(-c4ccccc4)ccnc23)cc1.c1ccc(-c2ccnc3c2ccc2c(-c4ccccc4)ccnc23)cc1 [[Ru(Ph2phen)2(H2O)2](PF6)2],EC50,A549 cells [2],> 100 µM
"CC(C)(C)OO [tBHP, Tert‐butyl hydroperoxide]","Normalized intracellular ROS generation, dark","A549 cells [1]; A549, hypoxia (1%), positive control 250 µM, 1 h",4.36
same,"Normalized intracellular ROS generation, dark","A549 cells [1]; A549, normoxia (21%), positive control 250 µM, 1 h",14.00
Ac-MRGDM-NH2,molar extinction coefficient ε × 10^4 at 405 nm (× 10^4 M^−1 cm^−1),,1.18 and 1.21
[Ru(Ph2phen)2(Ac‐MRGDM‐NH2)]Cl2 (sidechain bridge or staple) [[1]Cl2],ΦΔ (1O2) singlet oxygen quantum yield,[3],0.013 ± 0.005
